O=C(O)CCCC(=O)O
Conditions | solubility (mole fraction)
in cyclohexanone, 294.15 K | 0.153
in cyclohexanone, 298.45 K | 0.167
in cyclohexanone, 302.45 K | 0.181
in cyclohexanone, 307.15 K | 0.2
in cyclohexanone, 312.45 K | 0.238
in cyclohexanone, 317.05 K | 0.27
in cyclohexanone, 321.75 K | 0.309
in cyclohexanone, 326.35 K | 0.351
in cyclohexanone, 331.55 K | 0.401
in cyclohexanone, 335.25 K | 0.437
in propionic acid, 289.55 K | 0.238
in propionic acid, 294.15 K | 0.272
in propionic acid, 302.15 K | 0.337
in propionic acid, 305.65 K | 0.365
in propionic acid, 309.15 K | 0.395
in propionic acid, 312.85 K | 0.42
in propionic acid, 316.15 K | 0.447
in propionic acid, 319.65 K | 0.474
in propionic acid, 323.65 K | 0.509
in propionic acid, 332.15 K | 0.587
in ε-caprolactone, 286.25 K | 0.124
in ε-caprolactone, 291.55 K | 0.153
in ε-caprolactone, 296.15 K | 0.183
in ε-caprolactone, 300.25 K | 0.214
in ε-caprolactone, 304.45 K | 0.245
in ε-caprolactone, 308.55 K | 0.274
in ε-caprolactone, 312.45 K | 0.304
in ε-caprolactone, 316.05 K | 0.334
in ε-caprolactone, 320.25 K | 0.364
in ε-caprolactone, 325.25 K | 0.402

Reference: BigSolDB 2.1
